Measured values: paper PMC9610702, “Synthesis, Characterization, and Biological Evaluation of Tetrahydropyrimidines: Dual-Activity and Mechanism of Action” (Pharmaceutics, 2022)
Converted amounts (≈) assume the structure as drawn. Like-named read-outs stand apart in the source and are kept apart here.

What was measured:
Escherichia coli = experiment: antibacterial MIC, broth tube dilution; assay type: cell-based
From the text: (§1) In this paper, the synthesis, characterization, and biological evaluation of the novel tetrahydropyrimidines—THPMs are described. THPMs are well-known for wide pharmacological activities such as antimicrobial, anticancer, antiviral, etc. This research includes obtained results of in vitro antimicrobial, anticancer, and α-glucosidase inhibitory activities of the eleven novel THPMs. An antibiotic assessment was done against five bacteria (two Gram-positive and three Gram-negative) and five fungi by determining the minimal inhibitory concentration (MIC), using the broth tube dilution method. […] The cytotoxic activity was performed on the tumor cell lines (HeLa, K562, and MDA-MB-231) and normal cells (MRC-5). The best antitumor activity was shown by compounds 4b and 4k against HeLa cell lines.
(§2) All materials and methods used for biological examination (antibacterial, antifungal, anticancer, and α-glucosidase inhibitory activities) and crystal structure determination are presented in the Supplementary Materials, File S1.

Proteus mirabilis = experiment: antibacterial MIC, broth tube dilution; assay type: cell-based; settings: ND = not detected
From the text: as §1, §2

Klebsiella oxytoca = experiment: antibacterial MIC, broth tube dilution; assay type: cell-based
From the text: as §1, §2

Bacillus subtilis = experiment: antibacterial MIC, broth tube dilution; assay type: cell-based
From the text: as §1, §2

Staphylococcus aureus = experiment: antibacterial MIC, broth tube dilution; assay type: cell-based
From the text: as §1, §2

α-glucosidase = α-glucosidase inhibitory activity; assay type: biochemical; settings: average ± SD of two experiments
From the text: as §2

[1] = test system: normal human lung fibroblasts MRC-5; experiment: cytotoxic activity on normal cells; assay type: cell-based; settings: MRC5, MRC-5 normal fibroblasts, three independent experiments in triplicate, read-out: IC50 Average ± SD
From the text: as §2
The cytotoxic activity of eleven novel compounds was examined against HeLa, K562, MDA-MB-231, and MRC-5.
The cytotoxic activity was examined against HeLa, K562, MDA-MB-231 cells, and normal human lung fibroblasts MRC-5. […] In addition, the effects of the 4k and 4b on the cell cycle were examined.

HeLa cells [2] = experiment: cytotoxic activity; assay type: cell-based; settings: for IC50: Homo sapiens, read-out: IC50 Average ± SD; for IC50 / IC50 Average ± SD: HeLa, three independent experiments in triplicate
From the text: (§3) All materials and methods used for biological examination (antibacterial, antifungal, anticancer, and α-glucosidase inhibitory activities) and crystal structure determination are presented in the Supplementary Materials, File S1. The cytotoxic activity of eleven novel compounds was examined against HeLa, K562, MDA-MB-231, and MRC-5. The tested compounds exerted concentration-dependent cytotoxic effects on cell lines. […] Compared to compound 4j, 4k has a methyl group in para position of benzoyl fragment; so, probably this structural difference is responsible for better activity and selectivity of compound 4k on HeLa (43.63 ± 1.49 µM) and K562 (39.11 ± 2.90 µM).

MDA-MB-231 cells = experiment: cytotoxic activity; assay type: cell-based; settings: Homo sapiens, three independent experiments in triplicate, read-out: IC50 Average ± SD
From the text: as §3

K562 cells = experiment: cytotoxic activity; assay type: cell-based; settings: Homo sapiens; K562; three independent experiments in triplicate; read-out: IC50 Average ± SD
From the text: as §3

Mucor mucedo = experiment: antifungal MIC, broth tube dilution; assay type: cell-based
From the text: as §1, §2

[3] = test system: Trichophyton mentagrophytes; experiment: antifungal MIC, broth tube dilution; assay type: cell-based
From the text: as §1, §2

Aspergillus niger = experiment: antifungal MIC, broth tube dilution; assay type: cell-based
From the text: as §1, §2

Aspergillus flavus = experiment: antifungal MIC, broth tube dilution; assay type: cell-based
From the text: as §1, §2

Penicillium italicum = experiment: antifungal MIC, broth tube dilution; assay type: cell-based
From the text: as §1, §2

HeLa cells [4] = experiment: cell-cycle phase distribution; assay type: cell-based; settings: 24 h, IC50 and 2IC50 concentrations, vs untreated control
From the text: as §2
The observed changes in the amounts of treated cells within subG1 and G1 phases of the cell cycle were accompanied with decreased percentages of cells within the S and G2/M phases.
The data shown represent the average ± standard deviation of two independent experiments.

HeLa cells [5] = experiment: morphological evaluation of cell death mode, acridine orange/ethidium bromide staining; assay type: cell-based; settings: 24 h, 2IC50 concentration
Procedure: as §2
The photomicrographs of control HeLa cells and HeLa cells incubated for 24 h with 2IC50 concentrations of the compounds 4b and 4k and stained with a mixture of acridine orange/ethidium bromide are presented in Figure 5. […] Orange-red-stained shrunken cells with condensed chromatin in later stages of apoptosis were detected as well. […] The proapoptotic effect of compound 4b was to some extent stronger when comparing with effect of compound 4k.
Figure 5 Photomicrographs of acridine orange/ethidium bromide-stained control HeLa cells and HeLa cells incubated with 2IC50 concentrations of compounds 4b and 4k during 24 h (magnification 20×). Representative photomicrographs are shown.

| Structure (SMILES) | MIC (Escherichia coli) | MIC (Proteus mirabilis; read-out: MIC) | MIC (Klebsiella oxytoca) | MIC (Bacillus subtilis) | MIC (Staphylococcus aureus) | IC50 (α-glucosidase) | IC50 [1] | IC50 (HeLa cells [2]) | IC50 (MDA-MB-231 cells) | IC50 (K562 cells) | MIC (Mucor mucedo) | MIC [3] | MIC (Aspergillus niger) | MIC (Aspergillus flavus) | MIC (Penicillium italicum) | IC50 Average ± SD (HeLa cells [2]) | also measured |
| --- | --- | --- | --- | --- | --- | --- | --- | --- | --- | --- | --- | --- | --- | --- | --- | --- | --- |
| COC(=O)C1=C(C)N(C)C(=S)NC1c1cc(Br)c(O)c(OC)c1 (stereo not drawn) [4a] | 1620 µg/mL (≈ 4.04 mM) | 810 µg/mL (≈ 2.02 mM) | 1620 µg/mL (≈ 4.04 mM) | 3250 µg/mL (≈ 8.1 mM) | 1620 µg/mL (≈ 4.04 mM) | 313 ± 7.73 µM | 187 ± 4.66 µM | 97.4 ± 5.4 µM | 144 ± 8.29 µM | 79 ± 7.49 µM | 1620 µg/mL (≈ 4.04 mM) | 400 µg/mL (≈ 0.997 mM) | 1620 µg/mL (≈ 4.04 mM) | 1620 µg/mL (≈ 4.04 mM) | 1620 µg/mL (≈ 4.04 mM) | – | – |
| COC(=O)C1=C(C)N(C)C(=S)NC1c1cc(I)c(O)c(OC)c1 (stereo not drawn) [4b] | 1620 µg/mL (≈ 3.61 mM) | 810 µg/mL (≈ 1.81 mM) | 1620 µg/mL (≈ 3.61 mM) | 3250 µg/mL (≈ 7.25 mM) | 1620 µg/mL (≈ 3.61 mM) | 292 ± 6.67 µM | 112 ± 10.8 µM | 52.6 ± 4.45 µM | 116 ± 8.71 µM | 76.8 ± 5.01 µM | 1620 µg/mL (≈ 3.61 mM) | 400 µg/mL (≈ 0.892 mM) | 810 µg/mL (≈ 1.81 mM) | 1620 µg/mL (≈ 3.61 mM) | 1620 µg/mL (≈ 3.61 mM) | – | percentage of HeLa cells in the G1 phase (HeLa cells [4]): pronounced increase; percentage of dead cells within subG1 phase (HeLa cells [4]): increase; percentages of cells within the S and G2/M phases (HeLa cells [4]): decreased; cell death mode (apoptosis) (HeLa cells [5]): induce apoptotic cell death; selectivity coefficient (HeLa cells [2]; HeLa compared with MRC-5 cells): 2.13 |
| COC(=O)C1=C(C)N(C)C(=S)NC1c1cc(OC)c(O)c([N+](=O)[O-])c1 (stereo not drawn) [4c] | 1620 µg/mL (≈ 4.41 mM) | 1620 µg/mL (≈ 4.41 mM) | 1620 µg/mL (≈ 4.41 mM) | 3250 µg/mL (≈ 8.85 mM) | 1620 µg/mL (≈ 4.41 mM) | – | 196 ± 5.89 µM | > 200 µM | > 200 µM | 180 ± 9.15 µM | 1620 µg/mL (≈ 4.41 mM) | 400 µg/mL (≈ 1.09 mM) | 810 µg/mL (≈ 2.2 mM) | 400 µg/mL (≈ 1.09 mM) | 1620 µg/mL (≈ 4.41 mM) | very low cytotoxicity | – |
| COC(=O)C1=C(C)N(C)C(=S)NC1c1cc(OC)c(OC(C)=O)c([N+](=O)[O-])c1 (stereo not drawn) [4d] | 1620 µg/mL (≈ 3.96 mM) | 810 µg/mL (≈ 1.98 mM) | 1620 µg/mL (≈ 3.96 mM) | 3250 µg/mL (≈ 7.94 mM) | 810 µg/mL (≈ 1.98 mM) | 1120 ± 20.6 µM | 193 ± 10.3 µM | > 200 µM | > 200 µM | 165 ± 8.5 µM | 1620 µg/mL (≈ 3.96 mM) | 400 µg/mL (≈ 0.977 mM) | 1620 µg/mL (≈ 3.96 mM) | 1620 µg/mL (≈ 3.96 mM) | 1620 µg/mL (≈ 3.96 mM) | very low cytotoxicity | – |
| CCC(=O)Oc1ccc(C2NC(=S)N(C)C(C)=C2C(=O)OC)cc1OC (stereo not drawn) [4e] | 1620 µg/mL (≈ 4.28 mM) | – | 3250 µg/mL (≈ 8.59 mM) | 3250 µg/mL (≈ 8.59 mM) | 3250 µg/mL (≈ 8.59 mM) | 674.8 ± 5.65 µM | 128 ± 3.2 µM | 197 ± 3.93 µM | > 200 µM | 149 ± 5.74 µM | 1620 µg/mL (≈ 4.28 mM) | 200 µg/mL (≈ 0.528 mM) | 1620 µg/mL (≈ 4.28 mM) | 1620 µg/mL (≈ 4.28 mM) | 1620 µg/mL (≈ 4.28 mM) | – | MIC (Proteus mirabilis): no inhibitory effect |
| COC(=O)C1=C(C)N(C)C(=S)NC1c1ccc(OC(=O)C2CC2)c(OC)c1 (stereo not drawn) [4f] | 3250 µg/mL (≈ 8.32 mM) | 1620 µg/mL (≈ 4.15 mM) | 3250 µg/mL (≈ 8.32 mM) | 3250 µg/mL (≈ 8.32 mM) | 3250 µg/mL (≈ 8.32 mM) | 767.9 ± 5.91 µM | 196 ± 5.54 µM | 135 ± 9.32 µM | 161 ± 9.69 µM | 123 ± 8.52 µM | 1620 µg/mL (≈ 4.15 mM) | 200 µg/mL (≈ 0.512 mM) | 810 µg/mL (≈ 2.07 mM) | 1620 µg/mL (≈ 4.15 mM) | 1620 µg/mL (≈ 4.15 mM) | – | – |
